Data: patent US8536225B2, “Therapeutic methods employing nitric oxide precursors” (Vanderbilt University, priority 1999, dated 2013)

What was measured:
Format in all cases: in vivo, Duroc swine
[1] = Pharmacokinetics of plasma citrulline and arginine after single dose of IV citrulline; conditions: piglets, single dose IV citrulline 600 mg/kg
Experimental: (§1) Intravenous citrulline has not been previously used in a clinical model. This Example assessed the safety of IV citrulline and its effect on serum arginine levels in piglets. A total of 9 Duroc swine, aged 5-21 days, with a target minimum weight of 4 kg were utilized. All piglets underwent anesthetic induction and tracheostomy. Central lines were placed in the femoral artery and femoral vein and hemodynamics monitored continuously. Citrulline (600 mg/kg IV) was administered to 5 piglets. Saline was given to control animals. Serum amino acids were drawn before and each hour after citrulline administration.
Pharmacokinetics: Based on the above data, the pharmacokinetics were calculated for both plasma citrulline and arginie levels after the single dose of IV citrulline. Pharmacokinetic data included plasma half-life (t½), elimination constant (Kel), volume of distribution (Vd), and plasma clearance (CLp).

[2] = Hemodynamic monitoring (mean arterial blood pressure) after IV citrulline in piglets; conditions: citrulline 600 mg/kg IV
Experimental: as §1

[3] = Serum arginine levels after intravenous citrulline in piglets; conditions: citrulline 600 mg/kg IV
Experimental: as §1

NC(=O)NCCC[C@H](N)C(=O)O [Citrulline, citrulline]
half-life ([1]; Duroc, pig, plasma, read-out: Plasma citrulline half-life (t½) (converted)): 1.5 h
clearance ([1]; Duroc, pig, plasma, read-out: Plasma citrulline plasma clearance (CLp) (converted)): 17.5 mL/min
Vd ([1]; Duroc, pig, plasma, read-out: Plasma citrulline volume of distribution (Vd)): 2.25 L
Plasma citrulline elimination constant (Kel) [1]: 0.462 h⁻¹
Mean Arterial Blood Pressures Following IV Citrulline, 1 hour post ([2]; 1 hour post): 67.4 mmHg
Mean Arterial Blood Pressures Following IV Citrulline, 2 hours post ([2]; 2 hours post): 64.8 mmHg
Mean Arterial Blood Pressures Following IV Citrulline, 3 hours post ([2]; 3 hours post): 62.2 mmHg
Hemodynamic instability ([2]; hemodynamics monitored continuously): No hemodynamic instability was observed
Mean Arterial Blood Pressures Following IV Citrulline, Pre-dose ([2]; pre-dose): 67.0 mmHg
Time of peak serum arginine levels following IV citrulline administration [3]: 1 to 2 h
Arginine Levels Following IV Citrulline, 1 hour post ([3]; 1 hour post, serum): 535.0 µmol/L
Arginine Levels Following IV Citrulline, 2 hours post ([3]; 2 hours post, serum): 559.8 µmol/L
Arginine Levels Following IV Citrulline, 3 hours post ([3]; 3 hours post, serum): 498.4 µmol/L
Arginine Levels Following IV Citrulline, Baseline ([3]; baseline (before administration), serum): 131.5 µmol/L
